# Measurements taken from patent US20250263370A1 (Tay Therapeutics Limited, priority 2022, published 2025).
# What was measured:
# BRD4 BD1 = BRD4 BD1 (Homo sapiens (Human), UniProt O60885); assay: NanoBRET bromodomain assay, NanoLuc-BRD4-BD1 fusion in HEK293 cells; assay type: cell-based; conditions: top concentration 10 μM
# Protocol: HEK293 cells were transfected using NanoLuc-BRD4-BD1 or NanoLuc-BRD4-BD2 fusion vectors and incubated at 37° C. in an atmosphere of 5% CO2 for 20-24 hours. The transfected cells were then dispensed into 96-well plates using 90 μl cell suspension per well containing 2×10^5 cells/mL in Opti-MEM and 1× final concentration of tracer. 90 μL per well of cell suspension without tracer was also dispensed into at least 3 wells as “No tracer control samples” for background correction. Serially diluted test compounds were prepared at 1000× concentration in DMSO and further diluted to 10× concentration in Opti-MEM. […] Plates were then incubated at 37° C. +5% 002 incubator for 2 hours. […] Donor emission (450 nm) and acceptor emission (610 nm) were measured using PHERAstar (BMG LabTech). For data analysis, the raw BRET ratio was generated and converted to milliBRET units with background correction using the formula: [(Acceptorsample/Donorsample−(Acceptorno tracer control/Donorno tracer control)]×1000. The mBU data was plotted as a function of compound concentration and IC50s for BRET assay were determined by nonlinear regression analysis of concentration response curves using the Collaborative Drug Discovery Vault software. The fold-selectivity was calculated by dividing the IC50 for BRD4 BD1 by the IC50 for BRD4 BD2.
# [1] = Sprague-Dawley rat pharmacokinetics, IV and PO cassette dosing; assay type: in vivo; conditions: Method 1; for IV T1/2: IV 1 mg/kg; for PO F: PO 5 mg/kg
# Protocol: Compounds were formulated in 5% DMSO, 40% PEG-400, 55% Milli-Q water at a concentration of 0.2 mg/mL for IV and at 0.5 mg/mL for PO. Two male Sprague-Dawley rats per arm were dosed with up to 5 compounds in cassette mode, which each compound being dosed at 1 mg/kg IV and 5 mg/kg PO. Blood was sampled at various timepoints and plasma isolated. 50 μL of plasma with 5 μL of blank Sprague-Dawley rat plasma were added to 200 μL of acetonitrile containing IS mixture. The samples were vortexed for 30 s. After centrifugation at 4 degrees Celsius, 3900 rpm for 15 min, the supernatant was diluted 3 times with water. 20 μL of diluted supernatant was injected into the LC/MS/MS system for quantitative analysis and concentration of analyte determined by comparison with matrix matched standard curve. WinNonlin (Phoenix™, version 8.3) or other similar software may be used for pharmacokinetic calculations.
# BRD4 BD2 = BRD4 BD2 (Homo sapiens (Human), UniProt O60885); assay: NanoBRET bromodomain assay, NanoLuc-BRD4-BD2 fusion in HEK293 cells; conditions: for IC50: BRD4 BD2 (IC50), NanoBRET, HEK293 cells, top concentration 10 μM; for Fold selectivity: IC50 for BRD4 BD1 divided by IC50 for BRD4 BD2, qualitative if an IC50 is at the upper limit;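 for all read-outs here: tracer displacement BRET read in transfected cells after 2 h compound exposure at 37 °C, signal in milliBRET units corrected against no-tracer background wells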
# [2] = Plasma stability assay, rat plasma; assay type: in vitro ADME; conditions: Method 2 (10 μM)
# Protocol: From stock solution of compound in 10 mM DMSO, a working solution of 1 mM is prepared by diluting the compound in DMSO. To 398 μL of plasma pre-warmed at 37° C. for 15 minutes), 2 μL of working solution of compound is added, resulting in a final concentration of 5 μM (0.5% DMSO) for the compound. The sample is then incubated at 37° C. Aliquot is withdrawn at specified time-points (0, 15, 30, 60 and 120 mins). The reaction is stopped by addition of 450 μL cold acetonitrile containing internal standard (IS). […] Aliquots of the supernatant is analysed using LC-MS/MS. The percent remaining of the compound at each time point is calculated with respect to the control sample (0 min time-point).
# A working solution of compound (500 μM) is prepared in DMSO (100%). To 735 μL of plasma, 15 μL of working solution of compound is added—resulting in a final concentration of 10 μM (2% DMSO) for the compound. The sample is then incubated at 37° C. Aliquot is withdrawn at time-points—0, 15, 30, 60, 90 and 120 mins. The reaction is stopped by using chilled acetonitrile containing internal standard (IS). The samples are centrifuged and the supernatants analyzed using LC-MS/MS. The percent remaining of the compound at each time point is calculated with respect to the control sample (0 min time-point).
# [3] = Intrinsic clearance in liver microsomes, rat; assay type: in vitro ADME; conditions: rat, liver microsomes, pH 7.4, rat liver microsomes, Method 1; read-out: Half-Life (T1/2) (min), Rat
# Protocol: From stock solution of compound on 10 mM DMSO, a working solution of 0.1 mM is prepared by diluting the compound in DMSO. 6.25 μL of a 20 mg/mL solution of microsomes in PBS pH 7.4 buffer is added to 216.25 μL PBS pH 7.4 buffer (final microsome concentration—0.5 mg/mL). 25 μL of 10 mM solution of NADPH in PBS pH 7.4 buffer is added to the incubations (final NADPH concentration—1 mM). The mixture is pre-warmed to 37° C. for 10 minutes. 2.5 μL of test compound working solution is added (final compound concentration—1 μM with 1% DMSO). Aliquots of 30 μL are taken from the reaction solution at 0.5, 5, 15, 30 and 60 minutes. The reaction was stopped by the addition of 5 volumes of cold acetonitrile with IS (100 nM alprazolam, 200 nM caffeine and 100 nM tolbutamide). Samples were centrifuged at 3, 220 g for 40 minutes. Aliquots of 100 μL of the supernatant are mixed with 100 μL of ultra-pure H2O and used for LC-MS/MS analysis. The percent compound remaining at each time point is calculated with respect to that of the 0.5 min sample. The data are analysed to calculate half-life. Control experiments are run without NADPH and blank samples are prepared using DMSO without the test compound.
# A 50 mM stock solution (in DMSO) is prepared for the compound. From the stock solution, a working solution of 0.5 mM is prepared by diluting the compound in DMSO. This concentration of working solution is prepared considering a final concentration of 1 uM with 0.1% DMSO. The compound (1 μL of working solution) is spiked in PBS with pH 7.4 ([…]) at a concentration of 1 μM. Subsequently, 110 μL of 10 mM NADPH is added (as a co-factor). The sample is incubated at 37° C. for 15 min. Following this, pre-warmed liver microsomes (27.5 μL; final protein conc. 0.5 mg/mL) are added. The samples are then incubated at 37° C. Aliquots of samples are withdrawn at 0, 5, 15, 30, 45 and 60 min. The reaction is stopped by using chilled acetonitrile containing internal standard. The samples are centrifuged, and the supernatants analysed by LC-MS/MS. The percent compound remaining at each time point is calculated with respect to that of the 0 min sample. The data are then analysed to calculate half-life and intrinsic clearance (CLint). Control experiments are run without NADPH and blank samples are prepared using DMSO without the test compound.
SMILES,IC50 (BRD4 BD1) [µM],IV T1/2 [1] [h],PO F [1] [%],IC50 (BRD4 BD2) [µM],Fold selectivity (BRD4 BD2),"Plasma Stability (% remaining at 120 minutes), Rat [2] [%]",half-life at 1 μM [3] [min],"remaining activity at 10 µM (BRD4 BD2; HEK293, read-out: BRD4 BD2 % Activity Remaining @ 10 uM, 10 uM, (2) = second batch) [%]"
"CNC(=O)c1[nH]c(C(=O)N[C@H]2CC[C@H](O)CC2)cc1OC(C)c1ccc(Cl)cc1F (single isomer, unassigned) [Example 38, 3-(1-(4-chloro-2-fluorophenyl)ethoxy)-N^5-(trans-4-hydroxycyclohexyl)-N^2-methyl-1H-pyrrole-2,5-dicarboxamide]",≥ 10,1.4,66,0.05 to 0.2,XX (Fold >50 and ≤200),–,> 60,–
"CNC(=O)c1[nH]c(C(=O)NC2CCC(O)CC2)cc1OC(C)c1ccc(Cl)cc1 (single isomer, unassigned) [Example 29, 3-(1-(4-chlorophenyl)ethoxy)-N^5-(4-hydroxycyclohexyl)-N^2-methyl-1H-pyrrole-2,5-dicarboxamide]",–,–,–,–,XX (Fold >50 and ≤200),89,> 60,–
"CCNC(=O)c1cc(OC(C)c2ccc(Cl)cc2)c(C(=O)NC)[nH]1 (single isomer, unassigned) [Example 18, 3-(1-(4-chlorophenyl)ethoxy)-N^5-ethyl-N^2-methyl-1H-pyrrole-2,5-dicarboxamide]",≥ 10,1.1,30,< 0.05,XXX (Fold >200),–,–,–
"CCNC(=O)c1cc(OC(C)c2ccccc2F)c(C(=O)NC)[nH]1 (single isomer, unassigned) [Example 20, N^5-ethyl-3-(1-(2-fluorophenyl)ethoxy)-N^2-methyl-1H-pyrrole-2,5-dicarboxamide]",≥ 10,0.4,46,0.05 to 0.2,XX (Fold >50 and ≤200),–,–,–
"CNC(=O)c1[nH]c(C(=O)N[C@H]2CC[C@H](O)CC2)cc1OC(C)c1ccc(Cl)cc1F (single isomer, unassigned) [Example 37, 3-(1-(4-chloro-2-fluorophenyl)ethoxy)-N^5-(trans-4-hydroxycyclohexyl)-N^2-methyl-1H-pyrrole-2,5-dicarboxamide]",≥ 10,–,–,1 to 10,— (Fold ≥0 and ≤2),–,–,–
"CCNC(=O)c1cc(OC(C)c2ccc(C)cc2)c(C(=O)NC)[nH]1 (single isomer, unassigned) [Example 25, N^5-ethyl-N^2-methyl-3-(1-(p-tolyl)ethoxy)-1H-pyrrole-2,5-dicarboxamide]",≥ 10,–,–,< 0.05,XXX (Fold >200),–,–,–
"CCNC(=O)c1cc(OC(C)c2cccc(C#N)c2)c(C(=O)NC)[nH]1 (stereo not drawn) [Example 4, 3-(1-(3-cyanophenyl)ethoxy)-N^5-ethyl-N^2-methyl-1H-pyrrole-2,5-dicarboxamide]",≥ 10,–,–,> 10,— (Fold ≥0 and ≤2),–,–,–

# Second part, the compound after the results:
IC50 (BRD4 BD1) [µM],IV T1/2 [1] [h],PO F [1] [%],IC50 (BRD4 BD2) [µM],Fold selectivity (BRD4 BD2),"Plasma Stability (% remaining at 120 minutes), Rat [2] [%]",half-life at 1 μM [3] [min],"remaining activity at 10 µM (BRD4 BD2; HEK293, read-out: BRD4 BD2 % Activity Remaining @ 10 uM, 10 uM, (2) = second batch) [%]",SMILES
≥ 10,0.5,58,0.05 to 0.2,XX (Fold >50 and ≤200),20,–,–,"CNC(=O)c1[nH]c(C(=O)NC2CCC2)cc1OC(C)c1ccccc1F (single isomer, unassigned) [Example 43, N^5-cyclobutyl-3-(1-(2-fluorophenyl)ethoxy)-N^2-methyl-1H-pyrrole-2,5-dicarboxamide]"
≥ 10,–,–,0.2 to 1,X (Fold >2 and ≤50),–,> 60,–,"CCNC(=O)c1cc(OC(C)c2ccccc2)c(C(=O)NC)[nH]1 (racemic) [Example 95, N^5-ethyl-N^2-methyl-3-(1-phenylethoxy)-1H-pyrrole-2,5-dicarboxamide]"
≥ 10,0.3,69,0.2 to 1,X (Fold >2 and ≤50),–,> 60,–,"CCNC(=O)c1cc(OC(C)c2ccc(Cl)cc2F)c(C(=O)NC)[nH]1 (single isomer, unassigned) [Example 41, 3-(1-(4-chloro-2-fluorophenyl)ethoxy)-N^5-ethyl-N^2-methyl-1H-pyrrole-2,5-dicarboxamide]"
≥ 10,–,–,1 to 10,X (Fold >2 and ≤50),–,–,–,"CCNC(=O)c1cc(OC(CO)c2ccccc2)c(C(=O)NC)[nH]1 (racemic) [Example 73, N^5-ethyl-3-(2-hydroxy-1-phenylethoxy)-N^2-methyl-1H-pyrrole-2,5-dicarboxamide]"
≥ 10,–,–,0.2 to 1,X (Fold >2 and ≤50),–,–,–,"CCNC(=O)c1cc(OC(C)c2cccc(F)c2)c(C(=O)NC)[nH]1 (racemic) [Example 123, N^5-ethyl-3-(1-(3-fluorophenyl)ethoxy)-N^2-methyl-1H-pyrrole-2,5-dicarboxamide]"
≥ 10,–,–,0.2 to 1,X (Fold >2 and ≤50),–,–,30,"CCNC(=O)c1cc(OC(C)c2ccccn2)c(C(=O)NC)[nH]1 (racemic) [Example 96, N^5-ethyl-N^2-methyl-3-(1-(pyridin-2-yl)ethoxy)-1H-pyrrole-2,5-dicarboxamide]"
≥ 10,–,–,> 10,— (Fold ≥0 and ≤2),–,–,–,"CNC(=O)c1[nH]c(C(=O)N[C@H](C)C(F)(F)F)cc1O[C@@H](C)c1ccccc1 [Example 119, N^2-methyl-3-((S)-1-phenylethoxy)-N^5-((R)-1,1,1-trifluoropropan-2-yl)-1H-pyrrole-2,5-dicarboxamide]"
≥ 10,–,–,1 to 10,— (Fold ≥0 and ≤2),–,–,–,"CCNC(=O)c1cc(OC(C)c2ccnnc2)c(C(=O)NC)[nH]1 (single isomer, unassigned) [Example 79, N^5-ethyl-N^2-methyl-3-(1-(pyridazin-4-yl)ethoxy)-1H-pyrrole-2,5-dicarboxamide]"
≥ 10,–,–,1 to 10,X (Fold >2 and ≤50),–,–,–,"CNC(=O)c1[nH]c(-c2ccccc2F)cc1O[C@@H](C)c1ccccc1 [Example 85, (S)-5-(2-fluorophenyl)-N-methyl-3-(1-phenylethoxy)-1H-pyrrole-2-carboxamide]"
